# Assay results as given in PubChem BioAssay AID1259407 (Chemical Carcinogenesis Research Information System (CCRIS), 2018).
# Activity calls are given as the source filed them. The rule behind the calls is not given here.
# System: CCRIS mutagenicity, Ames/micronucleus/aberration tests
# Test: CCRIS mutagenicity studies
smiles,measurement,setting,value
CCCCCCCCCCCCCCCCCC(=O)NCCCC[C@@H](NC(=O)CC[C@@H](NC(=O)[C@H](C)NC(=O)[C@@H](C)O[C@H]1[C@H](O)[C@@H](CO)OC(O)[C@@H]1NC(C)=O)C(N)=O)C(=O)O (stereo partly drawn),mutagenic call,"Test System: AMES SALMONELLA TYPHIMURIUM, Strain/Indicator: TA98, Metabolic Activation: NONE, Method: PREINCUBATION",inactive; negative
same,mutagenic call,"Test System: AMES SALMONELLA TYPHIMURIUM, Strain/Indicator: TA98, Metabolic Activation: RAT, LIVER, S-9, KC-500, Method: PREINCUBATION",inactive; negative
same,mutagenic call,"Test System: AMES SALMONELLA TYPHIMURIUM, Strain/Indicator: TA100, Metabolic Activation: NONE, Method: PREINCUBATION",inactive; negative
same,mutagenic call,"Test System: AMES SALMONELLA TYPHIMURIUM, Strain/Indicator: TA100, Metabolic Activation: RAT, LIVER, S-9, KC-500, Method: PREINCUBATION",inactive; negative
same,mutagenic call,"Test System: AMES SALMONELLA TYPHIMURIUM, Strain/Indicator: TA1535, Metabolic Activation: NONE, Method: PREINCUBATION",inactive; negative
same,mutagenic call,"Test System: AMES SALMONELLA TYPHIMURIUM, Strain/Indicator: TA1535, Metabolic Activation: RAT, LIVER, S-9, KC-500, Method: PREINCUBATION",inactive; negative
same,mutagenic call,"Test System: AMES SALMONELLA TYPHIMURIUM, Strain/Indicator: TA1537, Metabolic Activation: NONE, Method: PREINCUBATION",inactive; negative
same,mutagenic call,"Test System: AMES SALMONELLA TYPHIMURIUM, Strain/Indicator: TA1537, Metabolic Activation: RAT, LIVER, S-9, KC-500, Method: PREINCUBATION",inactive; negative
same,mutagenic call,"Test System: AMES SALMONELLA TYPHIMURIUM, Strain/Indicator: TA1538, Metabolic Activation: NONE, Method: PREINCUBATION",inactive; negative
same,mutagenic call,"Test System: AMES SALMONELLA TYPHIMURIUM, Strain/Indicator: TA1538, Metabolic Activation: RAT, LIVER, S-9, KC-500, Method: PREINCUBATION",inactive; negative
same,mutagenic call,"Test System: E. COLI, Strain/Indicator: WP2 UVRA, Metabolic Activation: NONE, Method: PREINCUBATION",inactive; negative
same,mutagenic call,"Test System: E. COLI, Strain/Indicator: WP2 UVRA, Metabolic Activation: RAT, LIVER, S-9, KC-500, Method: PREINCUBATION",inactive; negative
CCCCCn1cc2c3c(cccc31)[C@H]1C=C(C)CN(C)[C@@H]1C2,mutagenic call,"Test System: AMES SALMONELLA TYPHIMURIUM, Strain/Indicator: TA100, Metabolic Activation: RAT, LIVER, S-9, AROCLOR 1254, Method: STANDARD PLATE",active; positive
CCCN(CCC)N=O,mutagenic call,"Test System: AMES SALMONELLA TYPHIMURIUM, Strain/Indicator: TA100, Metabolic Activation: HAMSTER, LIVER, S-9, Method: PREINCUBATION",active; positive
same,mutagenic call,"Test System: AMES SALMONELLA TYPHIMURIUM, Strain/Indicator: TA100, Metabolic Activation: HUMAN, LIVER, S-9, Method: PREINCUBATION",inactive; negative
same,mutagenic call,"Test System: AMES SALMONELLA TYPHIMURIUM, Strain/Indicator: TA100, Metabolic Activation: MOUSE, INTACT UROTHELIAL CELLS, Method: FLUCTUATION TEST",active; positive
same,mutagenic call,"Test System: AMES SALMONELLA TYPHIMURIUM, Strain/Indicator: TA100, Metabolic Activation: NONE, Method: STANDARD PLATE",inactive; negative
same,mutagenic call,"Test System: AMES SALMONELLA TYPHIMURIUM, Strain/Indicator: TA100, Metabolic Activation: PIG, LIVER, S-9, Method: PREINCUBATION",inactive; negative
same,mutagenic call,"Test System: AMES SALMONELLA TYPHIMURIUM, Strain/Indicator: TA100, Metabolic Activation: RABBIT, LIVER, S-9, Method: STANDARD PLATE",inactive; negative
same,mutagenic call,"Test System: AMES SALMONELLA TYPHIMURIUM, Strain/Indicator: TA100, Metabolic Activation: RABBIT, LUNG, S-9, Method: STANDARD PLATE",inactive; negative
same,mutagenic call,"Test System: AMES SALMONELLA TYPHIMURIUM, Strain/Indicator: TA100, Metabolic Activation: RABBIT, NASAL, S-9, Method: STANDARD PLATE",inactive; negative
same,mutagenic call,"Test System: AMES SALMONELLA TYPHIMURIUM, Strain/Indicator: TA100, Metabolic Activation: RAT, INTACT UROTHELIAL CELLS, Method: FLUCTUATION TEST",active; positive
same,mutagenic call,"Test System: AMES SALMONELLA TYPHIMURIUM, Strain/Indicator: TA100, Metabolic Activation: RAT, LIVER, S-9, AROCLOR 1254, Method: PREINCUBATION",active; positive
same,mutagenic call,"Test System: AMES SALMONELLA TYPHIMURIUM, Strain/Indicator: TA100, Metabolic Activation: RAT, LIVER, S-9, KC500 OR PHENOBARBITAL, Method: LIQUID SUSPENSION",active; positive
same,mutagenic call,"Test System: AMES SALMONELLA TYPHIMURIUM, Strain/Indicator: TA100, Metabolic Activation: RAT, LIVER, S-9, Method: PREINCUBATION",inactive; negative
same,mutagenic call,"Test System: AMES SALMONELLA TYPHIMURIUM, Strain/Indicator: TA100, Metabolic Activation: RAT, LIVER, S-9, Method: STANDARD PLATE",inactive; negative
same,mutagenic call,"Test System: AMES SALMONELLA TYPHIMURIUM, Strain/Indicator: TA100, Metabolic Activation: RAT, LUNG, S-9, Method: STANDARD PLATE",inactive; negative
same,mutagenic call,"Test System: AMES SALMONELLA TYPHIMURIUM, Strain/Indicator: TA100, Metabolic Activation: RAT, NASAL, S-9, Method: STANDARD PLATE",active; positive
same,mutagenic call,"Test System: AMES SALMONELLA TYPHIMURIUM, Strain/Indicator: TA102, Metabolic Activation: RAT, LIVER, S-9, AROCLOR 1254, Method: PREINCUBATION",active; positive
same,mutagenic call,"Test System: AMES SALMONELLA TYPHIMURIUM, Strain/Indicator: TA104, Metabolic Activation: RAT, LIVER, S-9, AROCLOR 1254, Method: PREINCUBATION",active; positive
same,mutagenic call,"Test System: AMES SALMONELLA TYPHIMURIUM, Strain/Indicator: TA1530, Metabolic Activation: RAT, LIVER, S-9, Method: STANDARD PLATE",active; positive
same,mutagenic call,"Test System: AMES SALMONELLA TYPHIMURIUM, Strain/Indicator: TA1535, Metabolic Activation: RAT, LIVER, S-9, AROCLOR 1254, Method: PREINCUBATION",active; positive
same,mutagenic call,"Test System: AMES SALMONELLA TYPHIMURIUM, Strain/Indicator: TA1535ER, Metabolic Activation: NONE, Method: STANDARD PLATE",inactive; negative
same,mutagenic call,"Test System: AMES SALMONELLA TYPHIMURIUM, Strain/Indicator: TA1975, Metabolic Activation: RAT, LIVER, S-9, AROCLOR 1254, Method: PREINCUBATION",active; positive
same,mutagenic call,"Test System: AMES SALMONELLA TYPHIMURIUM, Strain/Indicator: YG7104ER, Metabolic Activation: NONE, Method: STANDARD PLATE",active; positive
same,mutagenic call,"Test System: AMES SALMONELLA TYPHIMURIUM, Strain/Indicator: YG7108ER, Metabolic Activation: NONE, Method: STANDARD PLATE",active; positive
same,mutagenic call,"Test System: CHINESE HAMSTER V-79, Strain/Indicator: V-79/8-AZAGUANINE, Metabolic Activation: RAT, LIVER, S-15, PHENOBARBITAL, Method: STANDARD PLATE",active; positive
same,mutagenic call,"Test System: CHINESE HAMSTER V-79, Strain/Indicator: V-79/OUABAIN, Metabolic Activation: HAMSTER, HEPATOCYTES, Method: CELL-MEDIATED",active; positive
